In patent US9393232B2 (BeiGene, Ltd., priority 2013, dated 2016):
Read-outs that look alike come from different tables or passages of the source.

How the values were obtained:
[1] = biological target: Recombinant human BRD4(1-477) (Homo sapiens (Human), UniProt O60885); experiment: BRD4 TR-FRET biochemical IC50 assay; type: binding; conditions: TR-FRET, tetra-acetylated histone peptide; read-out: BRD4 IC50
MV4-11 = MV4-11 (3 Days) EC50; type: cell-based

| Compound | IC50 [1] [nM] | EC50 (MV4-11; Homo sapiens, MV4-11, 72 h) [nM] | EC50 (MV4-11) [nM] | EC50 (MV4-11; Homo sapiens, 72 h) [nM] |
| --- | --- | --- | --- | --- |
| Cc1noc(C)c1-c1ccc2c(c1)C(N[C@@H](CO)C(C)C)(c1ccccc1)C(=O)N2 (single isomer, unassigned) [Compound 2.11b] | 150 | 180 | – | – |
| Cc1noc(C)c1-c1ccc2c(c1)C(N[C@H](CO)C(C)C)(c1ccccc1)C(=O)N2 (single isomer, unassigned) [Compound 2.12a] | 89 | 144 | – | – |
| Cc1noc(C)c1-c1ccc2c(c1)C(NC[C@@H](C)O)(c1ccccc1)C(=O)N2 (single isomer, unassigned) [Compound 2.13b] | 81 | 140 | – | – |
| Cc1noc(C)c1-c1ccc2c(c1)C(NC[C@H](C)O)(c1ccccc1)C(=O)N2 (single isomer, unassigned) [Compound 2.14a] | 78 | 115 | – | – |
| Cc1noc(C)c1-c1ccc2c(c1)C(N[C@H](CO)C(C)C)(C1CCCCC1)C(=O)N2 (single isomer, unassigned) [Compound 2.19b] | 170 | 282 | – | – |
| Cc1noc(C)c1-c1ccc2c(c1)C(N[C@@H](CO)C(C)C)(C1CCCCC1)C(=O)N2 (single isomer, unassigned) [Compound 2.20b] | 350 | 377 | – | – |
| COC(=O)[C@@H]1C[C@@H](O)CN1C1(c2ccccc2)C(=O)Nc2ccc(-c3c(C)noc3C)cc21 (single isomer, unassigned) [Compound 2.50a] | 460 | 681 | – | – |
| Cc1noc(C)c1-c1ccc2c(c1)C(c1ccsc1)(N1CCC[C@@H](N)C1)C(=O)N2 (single isomer, unassigned) [Compound 4.6a] | 30 | – | 102 | – |
| Cc1noc(C)c1-c1ccc2c(c1)C(c1ccsc1)(N1CCC[C@@H](N)C1)C(=O)N2 (single isomer, unassigned) [Compound 4.6b] | 24 | – | 35 | – |
| Cc1noc(C)c1-c1ccc2c(c1)C(c1ccsc1)(N1CCC[C@H](N)C1)C(=O)N2 (single isomer, unassigned) [Compound 4.7a] | 24 | 35 | – | – |
| Cc1noc(C)c1-c1ccc2c(c1)C(c1ccsc1)(N1CCC[C@H](N)C1)C(=O)N2 (single isomer, unassigned) [Compound 4.7b] | 8 | 34 | – | – |
| Cc1noc(C)c1-c1ccc2c(c1)C(O)(c1ccccc1)C(=O)N2 (stereo not drawn) [Compound 1.1, 5-(3,5-dimethylisoxazol-4-yl)-3-hydroxy-3-phenylindolin-2-one] | 51 | – | – | 124 |
| Cc1noc(C)c1-c1ccc2c(c1)C(O)(c1ccc(Cl)cc1)C(=O)N2 (stereo not drawn) [Compound 1.2, 3-(4-chlorophenyl)-5-(3,5-dimethylisoxazol-4-yl)-3-hydroxyindolin-2-one] | 260 | – | – | 364 |
| Cc1noc(C)c1-c1ccc2c(c1)C(O)(c1cccc(Cl)c1)C(=O)N2 (stereo not drawn) [Compound 1.3, 3-(3-chlorophenyl)-5-(3,5-dimethylisoxazol-4-yl)-3-hydroxyindolin-2-one] | 380 | – | – | 369 |
| Cc1noc(C)c1-c1ccc2c(c1)C(O)(c1ccc(F)cc1)C(=O)N2 (stereo not drawn) [Compound 1.4, 5-(3,5-dimethylisoxazol-4-yl)-3-(4-fluorophenyl)-3-hydroxyindolin-2-one] | 100 | – | – | 181 |
| Cc1ccc(C2(O)C(=O)Nc3ccc(-c4c(C)noc4C)cc32)cc1 (stereo not drawn) [Compound 1.5, 5-(3,5-dimethylisoxazol-4-yl)-3-hydroxy-3-p-tolylindolin-2-one] | 180 | – | – | 285 |
| Cc1cc(C2(O)C(=O)Nc3ccc(-c4c(C)noc4C)cc32)ccc1F (stereo not drawn) [Compound 1.6, 5-(3,5-dimethylisoxazol-4-yl)-3-(4-fluoro-3-methylphenyl)-3-hydroxyindolin-2-one] | 380 | – | – | 594 |
| Cc1ccccc1C1(O)C(=O)Nc2ccc(-c3c(C)noc3C)cc21 (stereo not drawn) [Compound 1.7, 5-(3,5-dimethylisoxazol-4-yl)-3-hydroxy-3-o-tolylindolin-2-one] | 570 | – | – | 1500 |
| Cc1noc(C)c1-c1ccc2c(c1)C(O)(c1ccc(F)c(F)c1)C(=O)N2 (stereo not drawn) [Compound 1.8, 3-(3,4-difluorophenyl)-5-(3,5-dimethylisoxazol-4-yl)-3-hydroxyindolin-2-one] | 200 | – | – | 425 |
| COc1ccc(C2(O)C(=O)Nc3ccc(-c4c(C)noc4C)cc32)cc1 (stereo not drawn) [Compound 1.9, 5-(3,5-dimethylisoxazol-4-yl)-3-hydroxy-3-(4-methoxyphenyl)indolin-2-one] | 410 | – | – | 536 |
| Cc1ccsc1C1(O)C(=O)Nc2ccc(-c3c(C)noc3C)cc21 (stereo not drawn) [Compound 1.13, 5-(3,5-dimethylisoxazol-4-yl)-3-hydroxy-3-(3-methylthiophen-2-yl)indolin-2-one] | 560 | – | – | 746 |

| Compound | IC50 [1] [nM] | EC50 (MV4-11; Homo sapiens, MV4-11, 72 h) [nM] | EC50 (MV4-11) [nM] | EC50 (MV4-11; Homo sapiens, 72 h) [nM] |
| --- | --- | --- | --- | --- |
| Cc1noc(C)c1-c1ccc2c(c1)C(O)(C1CCCCC1)C(=O)N2 (stereo not drawn) [Compound 1.15, 3-cyclohexyl-5-(3,5-dimethylisoxazol-4-yl)-3-hydroxyindolin-2-one] | 77 | – | – | 183 |
| Cc1noc(C)c1-c1ccc2c(c1)C(O)(C1CCCC1)C(=O)N2 (stereo not drawn) [Compound 1.17, 3-cyclopentyl-5-(3,5-dimethylisoxazol-4-yl)-3-hydroxyindolin-2-one] | 270 | – | – | 671 |
| Cc1noc(C)c1-c1ccc2c(c1)C(O)(C1CCC1)C(=O)N2 (stereo not drawn) [Compound 1.18, 3-cyclobutyl-5-(3,5-dimethylisoxazol-4-yl)-3-hydroxyindolin-2-one] | 510 | – | – | 1140 |
| Cc1noc(C)c1-c1ccc2c(c1)C(O)(C1CC1)C(=O)N2 (stereo not drawn) [Compound 1.19, 3-cyclopropyl-5-(3,5-dimethylisoxazol-4-yl)-3-hydroxyindolin-2-one] | 850 | – | – | 1960 |
| CC#CC1(O)C(=O)Nc2ccc(-c3c(C)noc3C)cc21 (stereo not drawn) [Compound 1.22, 5-(3,5-dimethylisoxazol-4-yl)-3-hydroxy-3-(prop-1-ynyl)indolin-2-one] | 220 | 478 | – | – |
| Cc1noc(C)c1-c1ccc2c(c1)C(Cl)(c1ccccc1)C(=O)N2 (stereo not drawn) [Compound 1.31, 3-Chloro-5-(3,5-dimethylisoxazol-4-yl)-3-phenylindolin-2-one] | 58 | 152 | – | – |
| Cc1noc(C)c1-c1ccc2c(c1)C(OCCO)(c1ccccc1)C(=O)N2 (stereo not drawn) [Compound 1.32, 5-(3,5-Dimethylisoxazol-4-yl)-3-(2-hydroxyethoxy)-3-phenylindolin-2-one] | 79 | 82 | – | – |
| Cc1noc(C)c1-c1ccc2c(c1)C(NCCO)(c1ccccc1)C(=O)N2 (stereo not drawn) [Compound 2.1, 5-(3,5-dimethylisoxazol-4-yl)-3-(2-hydroxyethylamino)-3-phenylindolin-2-one] | 70 | 78 | – | – |
| Cc1noc(C)c1-c1ccc2c(c1)C(c1ccccc1)(N1CCCCC1)C(=O)N2 (stereo not drawn) [Compound 2.3, 5-(3,5-dimethylisoxazol-4-yl)-3-phenyl-3-(piperidin-1-yl)indolin-2-one] | 84 | 542 | – | – |
| Cc1noc(C)c1-c1ccc2c(c1)C(c1ccccc1)(N1CCC(O)CC1)C(=O)N2 (stereo not drawn) [Compound 2.4, 5-(3,5-dimethylisoxazol-4-yl)-3-(4-hydroxypiperidin-1-yl)-3-phenylindolin-2-one] | 36 | 76 | – | – |
| Cc1noc(C)c1-c1ccc2c(c1)C(c1ccccc1)(N1CCN(C)CC1)C(=O)N2 (stereo not drawn) [Compound 2.5, 5-(3,5-dimethylisoxazol-4-yl)-3-(4-methylpiperazin-1-yl)-3-phenylindolin-2-one] | 110 | 420 | – | – |
| Cc1noc(C)c1-c1ccc2c(c1)C(c1ccccc1)(N1CCOCC1)C(=O)N2 (stereo not drawn) [Compound 2.6, 5-(3,5-dimethylisoxazol-4-yl)-3-morpholino-3-phenylindolin-2-one] | 63 | 179 | – | – |
| Cc1noc(C)c1-c1ccc2c(c1)C(NCCO)(C1CCCCC1)C(=O)N2 (stereo not drawn) [Compound 2.18, 3-cyclohexyl-5-(3,5-dimethylisoxazol-4-yl)-3-(2-hydroxyethylamino)indolin-2-one] | 85 | 204 | – | – |
| Cc1noc(C)c1-c1ccc2c(c1)C(NC[C@H](C)O)(C1CCCCC1)C(=O)N2 (stereo partly drawn) [Compound 2.21, 3-cyclohexyl-5-(3,5-dimethylisoxazol-4-yl)-3-((S)-2-hydroxypropylamino)indolin-2-one] | 88 | – | 270 | – |
| Cc1noc(C)c1-c1ccc2c(c1)C(N[C@@H](C)CO)(C1CCCCC1)C(=O)N2 (stereo partly drawn) [Compound 2.23, 3-cyclohexyl-5-(3,5-dimethylisoxazol-4-yl)-3-((S)-1-hydroxypropan-2-ylamino)indolin-2-one] | 160 | 371 | – | – |
| Cc1noc(C)c1-c1ccc2c(c1)C(N[C@H](C)CO)(C1CCCCC1)C(=O)N2 (stereo partly drawn) [Compound 2.24, 3-cyclohexyl-5-(3,5-dimethylisoxazol-4-yl)-3-((R)-1-hydroxypropan-2-ylamino)indolin-2-one] | 75 | 349 | – | – |
| Cc1noc(C)c1-c1ccc2c(c1)C(NC(C)C)(C1CCCCC1)C(=O)N2 (stereo not drawn) [Compound 2.27, 3-cyclohexyl-5-(3,5-dimethylisoxazol-4-yl)-3-(isopropylamino)indolin-2-one] | 85 | 833 | – | – |
| Cc1noc(C)c1-c1ccc2c(c1)C(NCCN(C)C)(C1CCCCC1)C(=O)N2 (stereo not drawn) [Compound 2.28, 3-cyclohexyl-3-(2-(dimethylamino)ethylamino)-5-(3,5-dimethylisoxazol-4-yl)indolin-2-one] | 140 | 539 | – | – |
| Cc1noc(C)c1-c1ccc2c(c1)C(C1CCCCC1)(N1CCOCC1)C(=O)N2 (stereo not drawn) [Compound 2.29] | 94 | 314 | – | – |
| Cc1noc(C)c1-c1ccc2c(c1)C(C1CCCC1)(N1CCOCC1)C(=O)N2 (stereo not drawn) [Compound 2.34, 3-cyclopentyl-5-(3,5-dimethylisoxazol-4-yl)-3-morpholinoindolin-2-one] | 120 | 438 | – | – |
| Cc1noc(C)c1-c1ccc2c(c1)C(NCCO)(C1CCCC1)C(=O)N2 (stereo not drawn) [Compound 2.35, 3-cyclopentyl-5-(3,5-dimethylisoxazol-4-yl)-3-(2-hydroxyethylamino)indolin-2-one] | 130 | 324 | – | – |
